Data as given in US11926614B2, “1,2,4-triazole derivatives as tankyrase inhibitors” (priority 2018, dated 2024).
pIC50: −log10 of the molar value. Where two headings read alike, the source gives them in different places.

How the values were obtained:
HEK293 = assay: Cellular IC50 HEK293; type: cell-based
Excerpt: (§1) XLfit (idbs) was used to determine the IC50-values in inhibition experiments. The following formula was chosen to fit the data points (Langmuir Binding Isotherm): fit=((A+(B*x))+4(C−B)*(1−exp((−1*D)*x)))/D)), res=(y−fit)

TNKS2 = TNKS2 (Homo sapiens (Human), UniProt Q9H2K2); assay: Biochemical IC50 TNKS2
Sequence of TNKS2 (Q9H2K2 whole entry): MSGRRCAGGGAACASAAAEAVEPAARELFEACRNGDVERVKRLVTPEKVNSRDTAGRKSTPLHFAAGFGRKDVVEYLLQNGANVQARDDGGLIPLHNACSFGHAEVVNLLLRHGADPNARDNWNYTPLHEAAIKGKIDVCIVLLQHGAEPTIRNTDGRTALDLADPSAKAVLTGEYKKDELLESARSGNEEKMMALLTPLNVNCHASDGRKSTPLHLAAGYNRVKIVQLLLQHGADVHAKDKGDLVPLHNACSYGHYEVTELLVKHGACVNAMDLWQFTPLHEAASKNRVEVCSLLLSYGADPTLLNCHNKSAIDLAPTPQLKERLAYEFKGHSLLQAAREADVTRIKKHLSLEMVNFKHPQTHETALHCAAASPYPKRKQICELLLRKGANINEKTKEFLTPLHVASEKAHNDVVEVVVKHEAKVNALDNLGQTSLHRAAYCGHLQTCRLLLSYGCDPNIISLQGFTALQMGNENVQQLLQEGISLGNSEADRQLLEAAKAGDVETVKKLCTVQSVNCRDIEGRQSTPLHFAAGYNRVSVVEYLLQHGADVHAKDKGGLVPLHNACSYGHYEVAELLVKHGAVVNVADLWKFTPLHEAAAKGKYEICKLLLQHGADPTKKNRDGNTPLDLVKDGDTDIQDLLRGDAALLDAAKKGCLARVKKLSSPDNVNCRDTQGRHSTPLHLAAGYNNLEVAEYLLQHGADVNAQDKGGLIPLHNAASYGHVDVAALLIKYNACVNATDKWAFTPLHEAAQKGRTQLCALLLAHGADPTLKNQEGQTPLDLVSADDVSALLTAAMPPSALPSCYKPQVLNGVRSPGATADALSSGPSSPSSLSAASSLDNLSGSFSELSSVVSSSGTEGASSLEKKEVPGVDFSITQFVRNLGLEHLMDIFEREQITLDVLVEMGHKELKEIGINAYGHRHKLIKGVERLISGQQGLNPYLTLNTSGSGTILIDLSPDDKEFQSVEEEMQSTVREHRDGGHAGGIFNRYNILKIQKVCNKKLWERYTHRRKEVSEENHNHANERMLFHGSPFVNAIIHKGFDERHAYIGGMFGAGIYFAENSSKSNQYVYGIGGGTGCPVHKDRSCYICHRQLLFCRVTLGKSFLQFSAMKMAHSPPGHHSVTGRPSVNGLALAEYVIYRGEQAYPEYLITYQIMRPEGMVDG
Excerpt: as §1

[1] = Homo sapiens, HEK293, HEK293; read-out: Cellular IC50 HEK293
[2] = read-out: Biochemical IC50 TNKS2
[3] = Homo sapiens, HEK293, read-out: Cellular IC50 HEK293
[4] = Homo sapiens, HEK293; read-out: Cellular IC50 HEK293

## O=C(N[C@H]1C[C@H](c2nnc(-c3ccncn3)n2-c2ccccc2Cl)C1)c1ccccc1F [Example 13, N-((1S,3r)-3-(4-(2-chlorophenyl)-5-(pyrimidin-4-yl)-4H-1,2,4-triazol-3-yl)cyclobutyl)-2-fluorobenzamide]
HEK293; [1]
  pIC50: 7.52
TNKS2; [2]
  pIC50: 8.19

## CCOc1ccc(-c2nnc([C@H]3C[C@H](NC(=O)c4ccccn4)C3)n2-c2ccccc2Cl)nc1 [Example 134, N-((1S,3r)-3-(4-(2-chlorophenyl)-5-(5-ethoxypyridin-2-yl)-4H-1,2,4-triazol-3-yl)cyclobutyl)picolinamide]
HEK293; [1]
  pIC50: 8.35
TNKS2; [2]
  pIC50: 8.43

## CCOc1ccc(-c2nnc([C@H]3C[C@H](NC(=O)c4ccccn4)C3)n2-c2ccc(C)s2)nc1 [Example 81, N-((1r,3r)-3-(5-(5-ethoxypyridin-2-yl)-4-(5-methylthiophen-2-yl)-4H-1,2,4-triazol-3-yl)cyclobutyl)picolinamide]
HEK293; [3]
  pIC50: 7.43
TNKS2; [2]
  pIC50: 8.34

## CCOc1ccc(-c2nnc([C@H]3C[C@H](NC(=O)c4nn(C)c5ccccc45)C3)n2-c2ccccc2F)nc1 [Example 153, N-((1S,3r)-3-(5-(5-ethoxypyridin-2-yl)-4-(2-fluorophenyl)-4H-1,2,4-triazol-3-yl)cyclobutyl)-1-methyl-1H-indazole-3-carboxamide]
HEK293; [1]
  pIC50: 7.25
TNKS2; [2]
  pIC50: 7.89

## O=C(N[C@H]1C[C@H](c2nnc(-c3nccs3)n2-c2cccnc2)C1)c1cccc2cccnc12 [Example 114, N-((1r,3r)-3-(4-(pyridin-3-yl)-5-(thiazol-2-yl)-4H-1,2,4-triazol-3-yl)cyclobutyl)quinoline-8-carboxamide]
HEK293; [1]
  pIC50: 6.64
TNKS2; [2]
  pIC50: 7.70

## CCOc1ccc(-c2nnc(C34CC(NC(=O)c5ccnc6cc(F)cnc56)(C3)C4)n2-c2ccccc2)nc1 [Example 65, N-(3-(5-(5-ethoxypyridin-2-yl)-4-phenyl-4H-1,2,4-triazol-3-yl)bicyclo[1.1.1]pentan-1-yl)-7-fluoro-1,5-naphthyridine-4-carboxamide]
HEK293; [1]
  pIC50: 8.00
TNKS2; [2]
  pIC50: 8.85

## CCOc1ccc(-c2nnc([C@H]3C[C@H](NC(=O)c4ccc(C(C)O)cn4)C3)n2-c2ccccc2F)nc1 (mixture of isomers) [Example 100, rac-N-((1R,3r)-3-(5-(5-ethoxypyridin-2-yl)-4-(2-fluorophenyl)-4H-1,2,4-triazol-3-yl)cyclobutyl)-5-(1-hydroxyethyl)picolinamide]
HEK293; [1]
  pIC50: 7.32
TNKS2
  pIC50: 8.09

## O=C(N[C@H]1C[C@H](c2nnc(-c3ccc(OC(F)F)cn3)n2-c2ccccc2F)C1)c1cc(F)cc2nccnc12 [Example 186, N-((1S,3r)-3-(5-(5-(difluoromethoxy)pyridin-2-yl)-4-(2-fluorophenyl)-4H-1,2,4-triazol-3-yl)cyclobutyl)-7-fluoroquinoxaline-5-carboxamide]
HEK293; [3]
  pIC50: 9.29
TNKS2; [2]
  pIC50: 8.62

## CCOc1ccc(-c2nnc([C@H]3C[C@H](NC(=O)c4ccc(F)cn4)C3)n2-c2ccccc2F)nc1 [Example 59, N-((1S,3r)-3-(5-(5-ethoxypyridin-2-yl)-4-(2-fluorophenyl)-4H-1,2,4-triazol-3-yl)cyclobutyl)-5-fluoropicolinamide]
HEK293; [1]
  pIC50: 8.02
TNKS2; [2]
  pIC50: 8.62

## CCOc1ccc(-c2nnc([C@H]3C[C@H](NC(=O)c4ccc(F)cc4)C3)n2-c2ccccc2Cl)nc1 [Example 137, N-((1S,3r)-3-(4-(2-chlorophenyl)-5-(5-ethoxypyridin-2-yl)-4H-1,2,4-triazol-3-yl)cyclobutyl)-4-fluorobenzamide]
HEK293; [1]
  pIC50: 8.00
TNKS2; [2]
  pIC50: 8.31

## O=C(N[C@H]1C[C@H](c2nnc(-c3nccs3)n2-c2ccccc2Cl)C1)c1ccccc1 [Example 43, N-((1S,3r)-3-(4-(2-chlorophenyl)-5-(thiazol-2-yl)-4H-1,2,4-triazol-3-yl)cyclobutyl)benzamide]
HEK293; [1]
  pIC50: 7.09
TNKS2; [2]
  pIC50: 8.10

## CCOc1ccc(-c2nnc([C@H]3C[C@H](NC(=O)c4cc5cccnc5[nH]4)C3)n2-c2ccccc2F)nc1 [Example 152, N-((1S,3r)-3-(5-(5-ethoxypyridin-2-yl)-4-(2-fluorophenyl)-4H-1,2,4-triazol-3-yl)cyclobutyl)-1H-pyrrolo[2,3-b]pyridine-2-carboxamide]
HEK293; [1]
  pIC50: 6.84
TNKS2; [2]
  pIC50: 7.72

## Cc1cccc(-c2nnc([C@H]3C[C@H](NC(=O)c4ccc5cnccc5n4)C3)n2-c2ccccc2F)n1 [Example 200, N-((1S,3r)-3-(4-(2-fluorophenyl)-5-(6-methylpyridin-2-yl)-4H-1,2,4-triazol-3-yl)cyclobutyl)-1,6-naphthyridine-2-carboxamide]
HEK293; [1]
  pIC50: 7.92
TNKS2; [2]
  pIC50: 8.40

## O=C(N[C@H]1C[C@H](c2nnc(-c3ccccc3)n2-c2ccccc2F)C1)c1ccccn1 [Example 174, N-((1S,3r)-3-(4-(2-fluorophenyl)-5-phenyl-4H-1,2,4-triazol-3-yl)cyclobutyl)picolinamide]
HEK293; [3]
  pIC50: 6.10
TNKS2; [2]
  pIC50: 6.67

## O=C(N[C@H]1C[C@H](c2nnc(-c3nccs3)n2-c2ccc(Cl)s2)C1)c1ccnc2cccnc12 [Example 78, N-((1r,3r)-3-(4-(5-chlorothiophen-2-yl)-5-(thiazol-2-yl)-4H-1,2,4-triazol-3-yl)cyclobutyl)-1,5-naphthridine-4-carboxamide]
HEK293; [1]
  pIC50: 8.96
TNKS2; [2]
  pIC50: 8.70

## CCOc1ccc(-c2nnc([C@H]3C[C@H](NC(=O)c4ccnc5cccnc45)C3)n2-c2cccnc2)nc1 [Example 162, N-((1r,3r)-3-(5-(5-ethoxypyridin-2-yl)-4-(pyridin-3-yl)-4H-1,2,4-triazol-3-yl)cyclobutyl)-1,5-naphthyridine-4-carboxamide]
HEK293; [3]
  pIC50: 7.80
TNKS2; [2]
  pIC50: 8.35

## CCOc1ccc(-c2nnc(C34CC(NC(=O)c5ccnc6cc(F)cnc56)(C3)C4)n2-c2ccc(C)s2)nc1 [Example 86, N-(3-(5-(5-ethoxypyridin-2-yl)-4-(5-methylthiophen-2-yl)-4H-1,2,4-triazol-3-yl)bicyclo[1.1.1]pentan-1-yl)-7-fluoro-1,5-naphthyridine-4-carboxamide]
HEK293; [1]
  pIC50: 8.77
TNKS2; [2]
  pIC50: 8.66

## CCOc1ccc(-c2nnc(C34CC(NC(=O)c5ccnc6cccnc56)(C3)C4)n2-c2ccccn2)nc1 [Example 122, N-(3-(5-(5-ethoxypyridin-2-yl)-4-(pyridin-2-yl)-4H-1,2,4-triazol-3-yl)bicyclo[1.1.1]pentan-1-yl)-1,5-naphthyridine-4-carboxamide]
HEK293; [4]
  pIC50: 7.70
TNKS2; [2]
  pIC50: 7.89

## [2H]C([2H])([2H])Oc1ccc(-c2nnc([C@H]3C[C@H](NC(=O)c4ccccn4)C3)n2-c2ccccc2F)nc1 [Example 113, N-((1S,3r)-3-(4-(2-fluorophenyl)-5-(5-(methoxy-d3)pyridin-2-yl)-4H-1,2,4-triazol-3-yl)cyclobutyl)picolinamide]
HEK293; [1]
  pIC50: 7.13
TNKS2
  pIC50: 8.25

## O=C(N[C@H]1C[C@H](c2nnc(-c3nccs3)n2-c2ccccc2F)C1)c1ccc(F)cc1 [Example 28, 4-fluoro-N-((1S,3r)-3-(4-(2-fluorophenyl)-5-(thiazol-2-yl)-4H-1,2,4-triazol-3-yl)cyclobutyl)benzamide]
HEK293; [1]
  pIC50: 6.62
TNKS2; [2]
  pIC50: 7.29

## O=C(N[C@H]1C[C@H](c2nnc(-c3ccncn3)n2-c2ccccc2Cl)C1)c1ccnc2ccccc12 [Example 6, N-((1S,3r)-3-(4-(2-chlorophenyl)-5-(pyrimidin-4-yl)-4H-1,2,4-triazol-3-yl)cyclobutyl)quinoline-4-carboxamide]
HEK293; [1]
  pIC50: 5.89
TNKS2; [2]
  pIC50: 6.17

## CCOc1ccc(-c2nnc([C@H]3C[C@H](NC(=O)c4ccc5ncccc5n4)C3)n2-c2cccnc2)nc1 [Example 163, N-((1r,3r)-3-(5-(5-ethoxypyridin-2-yl)-4-(pyridin-3-yl)-4H-1,2,4-triazol-3-yl)cyclobutyl)-1,5-naphthyridine-2-carboxamide]
HEK293; [1]
  pIC50: 7.15
TNKS2; [2]
  pIC50: 7.85

## O=C(N[C@H]1C[C@H](c2nnc(-c3ccccc3)n2-c2ccccc2F)C1)c1ccc2cnccc2n1 [Example 178, N-((1S,3r)-3-(4-(2-fluorophenyl)-5-phenyl-4H-1,2,4-triazol-3-yl)cyclobutyl)-1,6-naphthyridine-2-carboxamide]
HEK293; [1]
  pIC50: 6.78
TNKS2; [2]
  pIC50: 7.68

## CCOc1ccc(-c2nnc([C@H]3C[C@H](NC(=O)c4ccc5ncccc5n4)C3)n2-c2ccccc2F)nc1 [Example 96, N-((1S,3r)-3-(5-(5-ethoxypyridin-2-yl)-4-(2-fluorophenyl)-4H-1,2,4-triazol-3-yl)cyclobutyl)-1,5-naphthyridine-2-carboxamide]
HEK293; [3]
  pIC50: 8.30
TNKS2; [2]
  pIC50: 8.82

## CCOc1ccc(-c2nnc(C34CC(NC(=O)c5ccnc6cccnc56)(C3)C4)n2-c2cccnc2)nc1 [Example 166, N-(3-(5-(5-ethoxypyridin-2-yl)-4-(pyridin-3-yl)-4H-1,2,4-triazol-3-yl)bicyclo[1.1.1]pentan-1-yl)-1,5-naphthyridine-4-carboxamide]
HEK293; [4]
  pIC50: 7.52
TNKS2; [2]
  pIC50: 8.02

## O=C(N[C@H]1C[C@H](c2nnc(-c3ccncn3)n2-c2ccccc2Cl)C1)c1ccncc1 [Example 8, N-((1S,3r)-3-(4-(2-chlorophenyl)-5-(pyrimidin-4-yl)-4H-1,2,4-triazol-3-yl)cyclobutyl)isonicotinamide]
HEK293; [1]
  pIC50: 7.15
TNKS2; [2]
  pIC50: 7.24

## O=C(N[C@H]1C[C@H](c2nnc(-c3ccccc3)n2-c2ccccc2F)C1)c1ccc(F)cn1 [Example 175, 5-fluoro-N-((1S,3r)-3-(4-(2-fluorophenyl)-5-phenyl-4H-1,2,4-triazol-3-yl)cyclobutyl)picolinamide]
HEK293; [1]
  pIC50: 6.30
TNKS2; [2]
  pIC50: 6.82

## CCOc1ccc(-c2nnc([C@H]3C[C@H](NC(=O)c4ccccn4)C3)n2-c2ccc(Cl)s2)nc1 [Example 75, N-((1r,3r)-3-(4-(5-chlorothiophen-2-yl)-5-(5-ethoxypyridin-2-yl)-4H-1,2,4-triazol-3-yl)cyclobutyl)picolinamide]
HEK293; [3]
  pIC50: 7.57
TNKS2; [2]
  pIC50: 7.92
